Source: patent US20110152313A1 (MACQUARIE UNIVERSITY, priority 2008, published 2011)

Tests used:
Assay in all cases: kinase binding screen (kinase-tagged T7 phage, qPCR), % Ctrl
PIM2 = PIM2 (Homo sapiens, UniProt Q9P1W9)
Description: (§1) Percentage kinase inhibition at a set concentration was performed by methods well known in the prior art (Fabian, M. A. et al. Nat. Biotechnol. 2005, 23, 329; Karaman et al. (2008) Nat. Biotechnol. […], 26, 127). Briefly, kinase-tagged T7 phage strains were grown in parallel in 24-well blocks in an E. coli host derived from the BL21 strain. E. coli were grown to log-phase and infected with T7 phage from a frozen stock (multiplicity of infection=0.4) and incubated with shaking at 32° C. until lysis (90-150 minutes). The lysates were centrifuged (6,000×g) and filtered (0.2 μm) to remove cell debris. […] The liganded beads were blocked with excess biotin and washed with blocking buffer (SeaBlock (Pierce); 1% BSA, 0.05% Tween 20, 1 mM DTT) to remove unbound ligand and to reduce non-specific phage binding. […] Test compounds were prepared as 40× stocks in 100% DMSO and directly diluted into the assay. All reactions were performed in polypropylene 384-well plates in a final volume of 0.04 mL. […] The kinase concentration in the eluates was measured by qPCR.

MKNK2 = MKNK2 (Homo sapiens, UniProt Q9HBH9)
Chain of MKNK2 (Q9HBH9 whole entry, species assumed): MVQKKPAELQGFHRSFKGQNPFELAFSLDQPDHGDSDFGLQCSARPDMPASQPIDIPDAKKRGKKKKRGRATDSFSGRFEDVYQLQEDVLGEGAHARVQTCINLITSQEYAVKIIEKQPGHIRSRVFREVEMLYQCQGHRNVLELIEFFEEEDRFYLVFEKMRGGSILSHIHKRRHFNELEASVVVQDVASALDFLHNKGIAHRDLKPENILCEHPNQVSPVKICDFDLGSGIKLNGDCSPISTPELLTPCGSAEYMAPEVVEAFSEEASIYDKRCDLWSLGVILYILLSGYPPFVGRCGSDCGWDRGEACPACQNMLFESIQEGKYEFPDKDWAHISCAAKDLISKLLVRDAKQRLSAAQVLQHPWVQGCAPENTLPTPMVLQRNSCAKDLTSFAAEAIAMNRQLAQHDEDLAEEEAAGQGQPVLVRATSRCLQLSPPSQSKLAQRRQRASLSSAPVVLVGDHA
Description: as §1

[1] = biological target: T1, RPS6KA6(Kin.Dom.2-C-terminal) (Homo sapiens, UniProt Q9UK32)
T1 sequence (Q9UK32 426-683 limits assumed): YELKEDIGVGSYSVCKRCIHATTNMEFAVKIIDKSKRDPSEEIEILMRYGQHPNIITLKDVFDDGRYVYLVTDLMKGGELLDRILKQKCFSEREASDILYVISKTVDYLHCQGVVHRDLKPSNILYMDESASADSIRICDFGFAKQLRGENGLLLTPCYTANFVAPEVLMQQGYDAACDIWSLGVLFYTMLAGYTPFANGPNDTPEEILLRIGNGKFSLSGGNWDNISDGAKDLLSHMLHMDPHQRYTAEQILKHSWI
Description: as §1

[2] = biological target: RPS6KA1(Kin.Dom.2-C-terminal) (Homo sapiens, UniProt Q15418)
Chain of RPS6KA1(Kin.Dom.2-C-terminal) (Q15418 418-675 limits assumed, species assumed): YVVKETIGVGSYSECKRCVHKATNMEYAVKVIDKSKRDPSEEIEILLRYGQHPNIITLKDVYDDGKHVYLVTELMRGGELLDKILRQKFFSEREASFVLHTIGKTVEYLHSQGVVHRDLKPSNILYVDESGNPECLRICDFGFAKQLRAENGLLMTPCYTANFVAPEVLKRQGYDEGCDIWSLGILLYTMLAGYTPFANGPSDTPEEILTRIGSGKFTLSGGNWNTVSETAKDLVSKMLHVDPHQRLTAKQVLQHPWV
Description: as §1

SgK085 = biological target: T2, SgK085 (Homo sapiens, UniProt Q86YV6)
T2 sequence (Q86YV6 1-388): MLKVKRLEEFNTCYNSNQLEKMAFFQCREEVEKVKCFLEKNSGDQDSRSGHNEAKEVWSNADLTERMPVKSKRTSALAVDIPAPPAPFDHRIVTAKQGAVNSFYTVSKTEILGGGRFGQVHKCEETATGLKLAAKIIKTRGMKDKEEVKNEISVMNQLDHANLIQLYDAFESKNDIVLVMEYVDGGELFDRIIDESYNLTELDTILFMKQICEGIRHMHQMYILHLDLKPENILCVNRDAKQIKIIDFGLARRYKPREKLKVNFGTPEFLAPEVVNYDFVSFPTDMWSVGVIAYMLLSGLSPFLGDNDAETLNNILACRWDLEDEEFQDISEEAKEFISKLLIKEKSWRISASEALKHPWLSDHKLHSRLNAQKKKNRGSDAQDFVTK
Description: as §1

TBK1 = biological target: T3, TBK1 (Homo sapiens, UniProt Q9UHD2)
T3 sequence (Q9UHD2 1-729): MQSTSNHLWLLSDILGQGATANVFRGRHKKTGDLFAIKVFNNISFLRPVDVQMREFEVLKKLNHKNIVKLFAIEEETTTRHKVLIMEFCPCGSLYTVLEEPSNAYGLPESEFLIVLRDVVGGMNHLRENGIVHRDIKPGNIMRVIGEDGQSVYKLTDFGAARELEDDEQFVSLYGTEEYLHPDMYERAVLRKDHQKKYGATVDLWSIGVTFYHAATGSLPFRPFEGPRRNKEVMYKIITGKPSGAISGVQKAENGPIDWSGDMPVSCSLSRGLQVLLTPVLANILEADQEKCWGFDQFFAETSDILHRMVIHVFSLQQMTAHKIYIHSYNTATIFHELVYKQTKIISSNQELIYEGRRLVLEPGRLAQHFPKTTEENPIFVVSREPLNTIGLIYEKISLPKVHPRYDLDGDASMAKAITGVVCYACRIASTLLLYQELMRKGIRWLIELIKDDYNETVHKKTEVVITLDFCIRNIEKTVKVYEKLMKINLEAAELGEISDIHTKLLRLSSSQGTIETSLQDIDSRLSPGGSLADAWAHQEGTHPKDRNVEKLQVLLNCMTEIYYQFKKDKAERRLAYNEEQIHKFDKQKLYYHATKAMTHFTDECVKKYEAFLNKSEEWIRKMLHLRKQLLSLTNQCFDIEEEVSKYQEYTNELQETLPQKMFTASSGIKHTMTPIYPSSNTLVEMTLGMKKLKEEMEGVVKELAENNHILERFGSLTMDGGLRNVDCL
Description: as §1

DYRK1A = DYRK1A (Homo sapiens, UniProt Q13627)
Description: as §1

Chain of PIM2 (Q9P1W9 whole entry, species assumed): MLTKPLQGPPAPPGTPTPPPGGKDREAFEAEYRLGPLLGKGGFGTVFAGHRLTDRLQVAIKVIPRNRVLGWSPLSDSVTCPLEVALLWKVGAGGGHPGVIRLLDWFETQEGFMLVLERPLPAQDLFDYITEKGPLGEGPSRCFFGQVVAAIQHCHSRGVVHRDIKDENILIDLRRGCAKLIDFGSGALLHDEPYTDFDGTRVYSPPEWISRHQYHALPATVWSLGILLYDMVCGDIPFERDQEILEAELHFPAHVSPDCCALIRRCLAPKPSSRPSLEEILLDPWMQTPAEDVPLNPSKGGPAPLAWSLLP

Row | remaining activity at 10 µM (PIM2; 10 μM) [%] | remaining activity at 10 µM (MKNK2; 10 μM) [%] | remaining activity at 10 µM ([1]; 10 μM) [%] | remaining activity at 10 µM ([2]; 10 μM) [%] | remaining activity at 10 µM (SgK085; 10 μM) [%] | remaining activity at 10 µM (TBK1; 10 μM) [%] | remaining activity at 10 µM (DYRK1A; 10 μM) [%] | Compound | remaining activity at 1 µM (PIM2) [%] | remaining activity at 1 µM (MKNK2) [%] | remaining activity at 1 µM [1] [%] | remaining activity at 1 µM [2] [%] | remaining activity at 1 µM (SgK085) [%] | remaining activity at 1 µM (TBK1) [%] | remaining activity at 1 µM (DYRK1A) [%]
1 | 21 | 69 | 34 | 22 | 90 | 78 | 4.7 | Nc1nc2c(-c3cc(Br)c(Br)[nH]3)nccc2[nH]1 [Ageladine A, ageladine A, reference compound] | 56 | 2.5 | 51 | 20 | 89 | 84 | 38
2 | – | – | – | – | – | – | – | Nc1nc2c(-c3ccccn3)nccc2[nH]1 [drawing 35, 4-(pyrid-2-yl)-1H-imidazo[4,5-c]pyridin-2-amine] | 100 | 86 | 49 | 33 | 43 | 50 | 36
3 | – | – | – | – | – | – | – | Nc1nc2c(-c3cnc4ccccc4c3)nccc2[nH]1 [drawing 36, 4-(quinolin-3-yl)-1H-imidazo[4,5-c]pyridin-2-amine] | 100 | 100 | 100 | 92 | 92 | 79 | 51
